Consider 1 molecule from paper PMC8761492 (Life Science Alliance, 2022).

In the assay the test system is SARS-CoV-2 B.1.1.7. Kind of assay: microbe, parasite or virus in culture. The settings on record: Severe acute respiratory syndrome coronavirus 2, Caco-2, pretreated 2 h, 24 h, mean ± SEM. The assay is classed as cell-based.

The IC50 is the concentration that gives 50% inhibition. Regarding `CCC(CC)COC(=O)[C@H](C)N[P@](=O)(OC[C@H]1O[C@@](C#N)(c2ccc3c(N)ncnn23)[C@H](O)[C@@H]1O)Oc1ccccc1` [Remdesivir], the IC50 amounted to 23 nM.
